In PMC8141534 (The Journal of Biological Chemistry, 2021):
Ends that are not written are not given here.

Experiments:
E. coli Rho [1] = experiment: Rho-mediated RNA release from stalled (roadblocked) elongation complex; assay type: biochemical, Escherichia coli; details: for inhibition of Rho-induced RNA release from stalled EC (in words): Fig. 3E; for inhibition of Rho-induced RNA release from stalled EC (in words) / Frac. of RNA released (%): Fig. S4B
MG1655 gene expression = assay type: cell-based, Escherichia coli; details: qRT-PCR, relative to empty vector
E. coli MG1655 = assay type: cell-based, Escherichia coli; details: MG1655, pNL150, IPTG induction (100 μM), LB, 37 °C, 6 h; three independent colonies
[2] = system: Rho proteins from pathogenic bacteria; assay type: biochemical; details: 35 μM peptide 33, 50 nM Rho, E. coli RNAP stalled EC, trpt′
[3] = system: Rho mutants, R144E, R146E, and E148R; assay type: cell-based, Escherichia coli; details: 0 and 100 μM IPTG
[4] = system: Rho mutants, R66G and Y80C; assay type: cell-based, Escherichia coli; details: 50 μM IPTG
CD spectrometry = assay type: physicochemical; details: 10 mM 2-(N-morpholino)ethanesulfonic acid pH 5.5, 190 to 270 nm, 25 °C
Mycobacterium bovis BCG = assay type: cell-based
[5] = system: Mycobacterium smegmatis mc^2155; assay type: cell-based
P167L Rho [6] = biological target: T1, P167L Rho (Escherichia coli, UniProt P0AG30, P167L); experiment: biochemical; assay type: binding
E. coli Rho [7] = assay type: biochemical, Escherichia coli
[8] = pH 5.5
[9] = system: Rho-dependent termination (trpt′ and trac terminators, lacZ reporter); assay type: cell-based, Escherichia coli
E. coli Rho [10] = experiment: single round in vitro Rho-dependent transcription termination, T7A1-trpt′ template; assay type: biochemical, Escherichia coli; details: no Rho
E134K Rho = E134K Rho (Escherichia coli, UniProt P0AG30, E134K); assay type: biochemical; details: E134K Rho + peptide; λTR1 RNA; exponential decay fit; two to three measurements
isolated Rho–NTD monomer = experiment: interaction with isolated Rho-NTD monomer; assay type: binding, Escherichia coli; details: data not shown
[11] = system: Rho-dependent termination (galEP3 reporter); experiment: in vivo Rho-dependent termination, galEP3 reporter, MacConkey-galactose plates; assay type: cell-based, Escherichia coli; details: MC4100 galEP3, MacConkey-galactose plates, overexpression
WT Rho [12] = biological target: T2, WT Rho (Escherichia coli, UniProt P0AG30); assay type: biochemical
E134K Rho mutant = assay type: cell-based, Escherichia coli; details: IPTG induction
WT Rho [13] = biological target: T2, WT Rho; details: earlier work; ref [11]; cited from earlier work
P167L Rho [14] = biological target: T1, P167L Rho; assay type: binding; details: Rho:ligand in μg: 1:6 (peptide 16), 1:4 (peptide 33), 1:3 (Psu); 1 mM ATP, pH 8.0, 37 °C, 20 min; SD of two or three measurements
E. coli Rho [15] = details: cited from earlier work
pathogenic Rho proteins = details: ref [13]; cited from earlier work
E. coli Rho [16] = details: compared with peptide 33; ref [9]; cited from earlier work
Excerpt: Next, we assayed the peptide-mediated inhibition of the in vitro transcription termination functions of the Rho. We used a linear DNA template where a trpt′ terminator is fused downstream of a strong T7A1 promoter. On this template, efficient transcription termination over a terminator zone is usually observed in the presence of Rho (Fig. 3D; ([16])). The amount of run-off transcripts at the end of this template gives the measure of Rho inhibition by the peptides. We observed that the amount of ...

[17] = system: Rho point mutants, R144E, R146E, and, E148R; details: cited from earlier work
P167L Rho [18] = biological target: T1, P167L Rho; details: ref [11]; cited from earlier work
[19] = system: Rho-dependent termination (trac and trpt′ lacZ fusions); assay type: cell-based, Escherichia coli; details: qRT-PCR, 2−ΔΔCt relative to empty vector; 100 μM IPTG (20 μM for Psu); at least three biological replicates
[20] = Rho + NusG-CTD (5 μM) + ATP, average of three experiments ± SD, Fig. 6A
[21] = Rho + Poly dC34 (10 μM) + ATP, average of three experiments ± SD, Fig. 6A
[22] = Rho + PolyC (2 mM Poly(rC)), average of three experiments ± SD, Fig. 6A
[23] = Rho + ATP, average of three experiments ± SD, Fig. 6A
[24] = Rho bound to the single-stranded DNA and RNA

Molecule: MHHHHHHTPAQFIFFRVKVRNWHTSVSVKAWLFWRMREDFQPDTD [peptide 33]
- inhibition of Rho-induced RNA release from stalled EC (in words) (E. coli Rho [1]): significantly inhibited
- inhibition of Rho-induced RNA release from stalled EC (in words) (E. coli Rho [1]; listed as Peptide 33): exerted its action at a lower concentration than peptide 16
- concentration for maximal effects (E. coli Rho [1]; in general, varied between different lots): ≥ 50 µM
- Frac. of RNA released (%) (E. coli Rho [1]; peptide 25, Rho 50 nM): 31± 0.4%
- Frac. of RNA released (%) (E. coli Rho [1]; peptide 35, Rho 50 nM): 16 ± 0.4%
- Frac. of RNA released (%) (E. coli Rho [1]; peptide 50, Rho 50 nM): 13 ± 0.4%
- upregulation of tested genes (in words) (MG1655 gene expression): higher level of upregulation of these genes than that when its CTDΔ8 derivative was expressed
- growth defect upon expression (in words) (E. coli MG1655): severe growth defects
- inhibition of RNA release by pathogenic Rho proteins (in words) [2]: could inhibit the termination process by all the different Rho proteins
- peptide-induced growth defect with Rho mutants (in words) [3]: could not prevent the peptide-induced growth defect
- effect on growth of Rho mutants compared with WT (in words) [4]: very severe
- secondary structure by CD (in words) (CD spectrometry): predominantly α-helical
- growth phenotype upon streaking (in words) (Mycobacterium bovis BCG): very sick phenotype
- growth phenotype upon streaking (in words) [5]: very sick phenotype
- transformants obtained (in words) [5]: fewer colonies than those obtained from the transformation with the empty vector
- Kd (P167L Rho [6]; ITC, 1 μM Rho P167L, 50 μM peptide, 1 mM ATP, pH 8.0, 25 °C, average of three experiments ± SD, Fig. 4B): 16.6 ± 3 nM
- Kd (P167L Rho [6]; P167L Rho, ITC): 17 nM
- Kd (P167L Rho [6]; [20]): 26.5 ± 0.3 nM
- Kd (P167L Rho [6]; [21]): 255 ± 100 nM
- Kd (P167L Rho [6]; [22]): 164 ± 48 nM
- n (P167L Rho [6]; [23]): 3.75 ± 0.2
- ΔG (P167L Rho [6]; [23]): -11 ± 0.1 kcal/mol
- ΔH (P167L Rho [6]; [23]): -28 ± 0.9 kcal/mol
- ΔS (P167L Rho [6]; [23]): -57 ± 3 cal/mol.K
- n (P167L Rho [6]; [20]): 3.1 ± 0.1
- ΔG (P167L Rho [6]; [20]): -10.3 ± 0.02 kcal/mol
- ΔH (P167L Rho [6]; [20]): -26 ± 3 kcal/mol
- ΔS (P167L Rho [6]; [20]): -52 ± 10 cal/mol.K
- n (P167L Rho [6]; [21]): 1.9 ± 0.3
- ΔG (P167L Rho [6]; [21]): -9.1 ± 0.3 kcal/mol
- ΔH (P167L Rho [6]; [21]): -23.7 ± 4 kcal/mol
- ΔS (P167L Rho [6]; [21]): -49.00 ± 13 cal/mol.K
- n (P167L Rho [6]; [22]): 2.9 ± 0.1
- ΔG (P167L Rho [6]; [22]): -9.3 ± 0.2 kcal/mol
- ΔH (P167L Rho [6]; [22]): -27.1 ± 3.5 kcal/mol
- ΔS (P167L Rho [6]; [22]): -59.6 ± 12.3 cal/mol.K
- binding stoichiometry (in words) (P167L Rho [6]; [24]): also reduced
- thermodynamic parameters (in words) (P167L Rho [6]; [24]): not changed significantly
- affinity for Rho (in words) (P167L Rho [6]; in the presence of NusG CTD): not affected significantly
- reduction of affinity for Rho (P167L Rho [6]; in the presence of polyC): 10 fold
- reduction of affinity for Rho (P167L Rho [6]; in the presence of polydC34): 15 fold
- inhibition of ATPase activity of E. coli Rho (in words) (E. coli Rho [7]): more efficient than peptide 16 in inhibiting this Rho function
- solubility at mildly acidic pH (in words) [8]: properly soluble at a mildly acidic pH
- in vivo antitermination / Rho inhibitory properties (in words) ([9]; Fig. 3): strong in vivo antitermination of Rho-dependent termination
- effect on transcription when Rho was absent (in words) (E. coli Rho [10]): did not have any effect on transcription when Rho was absent
- λ (average rate of ATP hydrolysis) (E134K Rho): 0.0155 min⁻¹
- interaction with isolated Rho-NTD monomer (in words) (isolated Rho–NTD monomer): unable to interact with an isolated Rho–NTD monomer
- colour of colonies, galEP3 reporter (in words) [11]: appearance of red colonies
- reduction of rate of ATP hydrolysis (WT Rho [12]; WT Rho): ~5.5 fold
- λ (average rate of ATP hydrolysis) (WT Rho [12]; WT Rho + peptide, λTR1 RNA, exponential decay fit, two to three measurements): 0.009 min⁻¹
- effect on growth of E134K Rho compared with WT (in words) (E134K Rho mutant): less severe effect on the growth of the E134K Rho than its WT counterpart

B1: Psu: bacteriophage P4 capsid protein, natural Rho antagonist, ∼42-kDa dimer (protein)
chain: MESTALQQAFDTCQNNKAAWLQRKNELAAAEQEYLRLLSGEGRNVSRLDELRNIIEVRKWQVNQAAGRYIRSHEAVQHISIRDRLNDFMQQHGTALAAALAPELMGYSELTAIARNCAIQRATDALREALLSWLAKGEKINYSAQDSDILTTIGFRPDVASVDDSREKFTPAQNMIFSRKSAQLASRQSV
- in vitro stable complex with WT Rho (in words) (WT Rho [13]): failed to obtain a stable in vitro Rho–Psu complex with the WT Rho
- inhibition of Rho-induced RNA release from stalled EC (in words) (E. coli Rho [1]): significantly inhibited
- Frac. of RNA released (%) (E. coli Rho [1]; Psu 5.0, Rho 50 nM): 12 ± 0.4%
- upregulation of tested genes (in words) (MG1655 gene expression): highest level of upregulations of the tested genes
- Fraction of Rho associated (%) (P167L Rho [14]): 49 ± 5%
- rate of RNA-dependent ATP hydrolysis of Rho (in words) (E. coli Rho [15]): reduced the rate of RNA-dependent ATP hydrolysis
- inhibition of ATP hydrolysis of Salmonella and Vibrio Rho with poly(C) RNA (in words) (pathogenic Rho proteins): too fast to be inhibited by Psu
- in vitro Rho inhibition in termination assay (in words) (E. coli Rho [16]): A similar level of in vitro Rho inhibition
- inhibition of RNA release by pathogenic Rho proteins (in words) [2]: could inhibit the termination process by all the different Rho proteins
- growth phenotype upon streaking (in words) (Mycobacterium bovis BCG): very sick phenotype
- binding of Rho mutants R144E, R146E, E148R (in words) [17]: did not bind to Psu
- growth phenotype upon streaking (in words) [5]: very sick phenotype
- transformants obtained (in words) [5]: fewer colonies than those obtained from the transformation with the empty vector
- colour of colonies, lacZ reporter (in words) ([9]; trpt′ and trac, LB-X-gal, induction by 50 μM IPTG): deep blue colonies
- colour of colonies, galEP3 reporter (in words) [11]: appearance of red colonies
- in vitro stable complex with P167L Rho (in words) (P167L Rho [18]): stable complex between Psu and Rho could form if a mutant Rho, P167L, was used
- enhancement of expression of Plac-trac-lacZ fusion [19]: 28 fold
